From patent publication US12599606B2, “Therapies with 3rd generation EGFR tyrosine kinase inhibitors” (Janssen Biotech, Inc., priority 2019, dated 2026)

How the values were obtained:
[1] = system: EGFR mutation positive (EGFRm+) advanced NSCLC; experiment: Clinical Trial No. NCT03046992, phase I/II lazertinib monotherapy; format: in vivo, human; settings: for ORR, (%): T790M+ patients
From the text: Clinical Trial No. NCT03046992 was primarily designed to evaluate the safety, tolerability, and efficacy of YH25448 in patients with EGFR mutation positive (EGFRm+) advanced NSCLC with or without asymptomatic brain metastasis who progressed following prior therapy with an EGFR TKIs agent.
Patients with advanced and metastatic NSCLC who had progressed after treatment with EGFR-TKIs with/without asymptomatic brain metastases (BM) were enrolled in an open-label, multicenter, phase I/II study with dose-escalation and expansion cohorts. Lazertinib was administered once daily at doses between 20 to 320 mg in a 21-day cycle. Patients were assessed for safety, tolerability, pharmacokinetics and efficacy. T790M status was confirmed in the dose-expansion cohorts.

[2] = system: EGFR Dell9/T790M mutant lung adenocarcinoma; settings: one patient, 40 mg daily, cited from earlier work
[3] = Body weight and clinical signs of nude mice bearing H1975 xenografts; settings: for body weight loss compared to the control group: H1975-xenograft-bearing nude mice, Day 29, 10 mg/kg; for animals euthanized due to negative clinical signs: H1975 model, n=10/group, unclear whether due to tumor burden or treatment
Procedure: The mice were housed on irradiated Enrich-o'cobs™ Laboratory Animal Bedding in static microisolators on a 12-hour light cycle at 20-22° C. (68-72° F.) and at 40-60% humidity.
(§1) Female athymic nude mice were used in the studies (n=10/group). Treatment began when SC tumors reached approximately 100 to 300 mm^3 in size. and dosing was initiated according to the treatment plan summarized in Table 2. […] The control group was dosed with vehicle orally daily for 21 days, and the isotype control antibody was dosed twice a week IP for 3 weeks. Mice were monitored for body weight and tumor volume up to Day 95, and were euthanized when individual tumor volume reached 2,000 mm^3 or at study conclusion.
(§2) Relative body weight of individual mice was calculated using the formula: (W/W0)×100, where ‘W’ represents body weight on a particular day, and ‘W0’ represents body weight at initiation of treatment. Body weight was graphically represented as mean % of initial body weight±SEM.
Tumor volume and body weight data were graphically represented using Prism software (GraphPad, version 7). Statistical significance was evaluated for all pairwise comparisons on the last day of the study when at least eight mice remained in each group. Differences between groups were considered significant when p≤0.05. Statistical significance of tumor volume and body weight was calculated using the Linear Mixed-Effects analysis in R software version 3.4.2 (using Janssen's internally developed Shiny application version 3.3), with treatment and time as fixed effects and animal as random effect. Logarithmic transformation (base 10) was performed if individual longitudinal response trajectories were not linear. The information derived from this model was used to make pairwise treatment comparisons to the control group or between all the treatment groups.

[4] = system: H1975 human lung xenografts; experiment: H1975 human lung carcinoma xenograft model, antitumor activity
Procedure: The animals were fed ad libitum water (reverse osmosis, 1 ppm Cl) and NIH 31 Modified and Irradiated Lab Diet® consisting of 18.0% crude protein, 5.0% crude fat, and 5.0% crude fiber. The mice were housed on irradiated Enrich-o'cobs™ Laboratory Animal Bedding in static microisolators on a 12-hour light cycle at 20-22° C. (68-72° F.) and at 40-60% humidity. All studies complied with the recommendations of the Guide for Care and Use of Laboratory Animals with respect to restraint, husbandry, surgical procedures, feed and fluid regulation, and veterinary care. […]
On the day of implant, the NCI-H1975 cells were harvested during log phase growth and resuspended in phosphate buffered saline (PBS) at a concentration of 5×10^7 cells/mL. Xenografts were initiated by subcutaneously implanting 5×10^6 NCI-H1975 cells per animal (0.1 mL suspension) into the right flank of each test animal and tumors were monitored as their volumes approached the target range of 150-200 mm^3. Fifteen days later, animals were sorted into bins by calculated tumor volumes based on vernier caliper measurements of tumor width and length to the nearest mm. […] Tumor size, in mm3, was calculated using the following formula: Tumor Volume=(w^2×l)/2 where w=width and l=length, in mm, of the tumor. […]

[5] = system: H1975-HGF xenografts; experiment: H1975-HGF human lung carcinoma xenograft model, antitumor activity
Procedure: as §1
Tumor volume data were graphically represented as the mean tumor volume±SEM. Tumor volume was calculated using the formula: tumor volume (mm^3)=(D×d2)/2; where ‘D’ represents the larger diameter, and ‘d’ the smaller diameter of the tumor as determined by caliper measurements.
The % TGI was defined as the difference between mean tumor burden of the treated and control group, calculated as % ΔTGI=([(TVc−TVc0)−(TVt−TVt0)]/(TVc−TVc0))×100 where ‘TVc’ is the mean tumor burden of a given control group, ‘TVc0’ is the mean initial tumor burden of a given control group, ‘TVt’ is the mean tumor burden of the treated group, and ‘TVt0’ is the mean initial tumor burden of the treated group. […]
Survival data was graphed and analyzed using GraphPad Prism 7.04 for Windowswith day 1 as the treatment start date. […]

[6] = Body weight and clinical signs of nude mice bearing H1975-HGF xenografts; format: in vivo; settings: H1975-HGF model, n=10/group; unclear whether due to tumor burden or treatment
Procedure: as §1, §2
Tumor volume and body weight data were graphically represented using Prism software (GraphPad, version 7). Statistical significance was evaluated for all pairwise comparisons on the last day of the study when at least eight mice remained in each group. Differences between groups were considered significant when p≤0.05. Statistical significance of tumor volume and body weight was calculated using the Linear Mixed-Effects analysis in R software version 3.4.2 (using Janssen's internally developed Shiny application version 3.3), with treatment and time as fixed effects and animal as random effect. […]

[7] = system: advanced NSCLC; experiment: Study 61186372EDI1001, Phase 1 first-in-human dose escalation of JNJ-61186372 as monotherapy and in combination with lazertinib; format: in vivo
From the text: This study is a first-in-human, open-label, multicenter, 2-part, Phase 1 dose escalation study to evaluate the safety and PK, establish a recommended Phase 2 dose (RP2D) and recommended Phase 2 combination dose (RP2CD) regimen, and to assess the preliminary efficacy of JNJ-61186372 as a monotherapy and in combination with lazertinib in subjects who are≥18 years of age with advanced NSCLC.
Part 1 JNJ-61186372 Monotherapy and Combination Dose Escalations: A traditional 3+3 design will be utilized to determine the MTD (or the maximum administered dose [MAD] if no MTD is defined) and the RP2D regimen(s) for JNJ-61186372 monotherapy, and the RP2CD of the JNJ-61186372 and lazertinib combination, in subjects with advanced NSCLC. The total number of subjects enrolled in each dose escalation will depend on the dose level at which the MTD or MAD is reached, and whether dose cohort expansions are indicated. […]
Anti-tumor activity will be evaluated by clinical responses as per the Response Evaluation Criteria in Solid Tumors (RECIST v1.1) (Eisenhauer et al.., Eur J Cancer 2009;45(2):228-247) The investigator will evaluate sites of disease by radiological imaging, physical examination, and other procedures, as necessary, and all results will be recorded in the case report form (CRF). […]

[8] = monotherapy, EGFR-mutated NSCLC
[9] = Day 28, as compared to controls, 10 mg/kg

With `C=CC(=O)Nc1cc(Nc2nccc(-n3cc(CN(C)C)c(-c4ccccc4)n3)n2)c(OC)cc1N1CCOCC1` [Lazertinib, N-(5-(4-(4-((dimethylamino)methyl)-3-phenyl-1H-pyrazol-1-yl)pyrimidin-2-ylamino)-4-methoxy-2-morpholinophenyl)acrylamide] the systemic exposure ([1]; 20 to 320 mg once daily) was “increased dose-dependently”, the ORR ([1]; 93 T790M+ patients) was 69% and the TEAE constipation ([1]; 115 patients) was 12%. The TEAE decreased appetite ([1]; 115 patients) was 17%, the “TEAE of grade ≥3 hyponatraemia” value ([1]; 115 patients) was 2% and the “TEAE of grade ≥3 nausea” value ([1]; 115 patients) was 2%. The “TEAE of grade ≥3 pneumonia” value ([1]; 115 patients) was 2%, the TEAE pruritus ([1]; 115 patients) was 19% and the TEAE rash ([1]; 115 patients) was 14%. The tolerability ([1]; EGFR T790M+ NSCLC patients, multiple dose levels) was “well tolerated”, the “ORR, (%)” value ([1]; 20 mg QD, 2 evaluable) was 100% and the “ORR, (%)” value ([1]; 40 mg QD, 25 evaluable) was 68%. The “ORR, (%)” value ([1]; 80 mg QD, 18 evaluable) was 61%, the “ORR, (%)” value ([1]; 120 mg QD, 22 evaluable) was 77% and the “ORR, (%)” value ([1]; 160 mg QD, 18 evaluable) was 61%. The “ORR, (%)” value ([1]; 240 mg QD, 8 evaluable) was 75%, the dose-limiting toxicities ([1]; dose-escalation cohort, 38 patients, 20 to 320 mg) was “No dose-limiting toxicities were observed” and the “objective response rate (ORR)” value ([1]; evaluable patients (n=110) at data cut-off, 20 to 320 mg once daily) was 65%. For the same compound, the DLTs ([1]; monotherapy FIH dose escalation, through 320 mg) was “no DLTs were observed”, the “dose from which clinical activity was demonstrated in the targeted population” value [1, 8] was 240 mg and the “intracranial ORR” value ([1]; patients with BM (n=12)) was 50%. The extracranial tumor reduction ([2]; tumor assessment after 6 weeks) was 12.7%, the intracranial tumor reduction ([2]; tumor assessment after 6 weeks) was 49.3% and the overall tumor reduction ([2]; tumor assessment after 6 weeks) was 25.9%. The adverse events [2] was “without significant adverse events”, the “body weight loss compared to the control group” value [3] was “some transient body weight loss” and the “animals euthanized due to negative clinical signs” value [3] was “One”. The “CR (complete tumor regression)” value ([4]; n=10/group, mice with CR) was 1 of 10 and the “CR (complete tumor regression)” value ([5]; n=10/group, mice with CR) was 2 of 10.
For `C=CC(=O)Nc1cc(Nc2nccc(-c3cn(C)c4ccccc34)n2)c(OC)cc1N(C)CCN(C)C` [Osimertinib, osimertinib, reference compound], the “body weight loss compared to the control group” value [3] was “some transient body weight loss” and the “mice found dead or euthanized due to negative clinical signs” value [6] was “One”.
In the case of JNJ-372, the “animals euthanized due to negative clinical signs” value [3] is reported as “One”, the TGI [4, 9] is reported as 86% and the “mice found dead or euthanized due to negative clinical signs” value [6] is reported as “One”. For the same compound, the DLTs ([7]; monotherapy FIH dose escalation, through 1400 mg) was “no DLTs were observed”, the “dose from which clinical activity was demonstrated in the targeted population” value [7, 8] was 700 mg and the TGI [5, 9] was 70%.
